From PubChem BioAssay (NCI)
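Grown in 96-well plates, cells were treated for 48 hours with each compound at five concentrations. Insufficient inhibition: endpoint recorded as highest concentration tested. The concentration for 50% growth inhibition is given as GI50. TGI: total growth inhibition.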

Experiments:
Assay in all cases: growth of human tumour cells (NCI), 48 h
RXF 393 renal = system: RXF 393 renal
SK-MEL-5 melanoma = system: SK-MEL-5 melanoma
SF-539 CNS = system: SF-539 CNS
HCT-116 colon = system: HCT-116 colon
KM12 colon = system: KM12 colon
TK-10 renal = system: TK-10 renal
IGROV1 ovarian = system: IGROV1 ovarian
HL-60(TB) leukemia = system: HL-60(TB) leukemia
SNB-75 CNS = system: SNB-75 CNS
NCI/ADR-RES ovarian = system: NCI/ADR-RES ovarian

| Structure (SMILES) | TGI (RXF 393 renal) [µM] | TGI (SK-MEL-5 melanoma) [µM] | TGI (SF-539 CNS) [µM] | TGI (HCT-116 colon) [µM] | TGI (KM12 colon) [µM] | TGI (TK-10 renal) [µM] | TGI (IGROV1 ovarian) [µM] | TGI (HL-60(TB) leukemia) [µM] | TGI (SNB-75 CNS) [µM] | GI50 (SK-MEL-5 melanoma) [µM] | GI50 (SF-539 CNS) [µM] | GI50 (NCI/ADR-RES ovarian) [µM] | TGI (NCI/ADR-RES ovarian) [µM] | GI50 (HCT-116 colon) [µM] | GI50 (KM12 colon) [µM] | GI50 (TK-10 renal) [µM] | GI50 (IGROV1 ovarian) [µM] | GI50 (HL-60(TB) leukemia) [µM] | GI50 (SNB-75 CNS) [µM] | GI50 (RXF 393 renal) [µM] |
| --- | --- | --- | --- | --- | --- | --- | --- | --- | --- | --- | --- | --- | --- | --- | --- | --- | --- | --- | --- | --- |
| CC1CCC2(CC1)NN=c1s/c(=C\c3ccc(O)cc3)c(=O)n1N2 (centres undefined) | > 100 | > 100 | > 100 | > 100 | > 100 | > 100 | > 100 | > 100 | > 100 |  |  |  |  |  |  |  |  |  |  |  |
| COc1ccc2c(c1)C(=O)c1c-2n(CCCN=[N+]=[N-])c(=O)c2cc(OC)c(OC)cc12 |  | > 100 | > 100 | > 100 | > 100 | 72.1 | > 100 | 25.7 | 35.3 | > 100 | 56.5 | 80.1 | > 100 | 27.8 | > 100 | 19.5 | 16 | 13 | 14.8 |  |
| COC(=O)c1c2c(c[n+]([O-])c1C)C(=O)C=CC2=O |  | 3.15 | 3.39 | 5.18 | 18.8 | 9.57 | 4.54 | 5.75 | 4.13 | 1.74 | 1.79 | 3.27 | 14.4 | 2.19 | 4.27 | 2.99 | 2.11 | 2.13 | 1.72 |  |
| COc1ccc(OC)c2c1CC(C(=O)O)(C(=O)O)CC2=O | > 100 | > 100 |  | > 100 | > 100 | > 100 | > 100 | > 100 | > 100 |  |  |  |  |  |  |  |  |  |  |  |
| COc1ccc(OC)c(/C(C)=N/NC(N)=S)c1 | > 100 | > 100 | > 100 | > 100 | > 100 | > 100 | > 100 | > 100 | > 100 |  |  |  |  |  |  |  |  |  |  |  |
| COC(=O)N(C(=O)OC)C(C(=O)O)C(C)C (centres undefined) | > 100 |  | > 100 |  | > 100 | > 100 |  | > 100 | > 100 |  |  |  |  |  |  |  |  |  |  |  |
| CC(C)=CCc1c(OC(=O)c2c(C)cc(O)cc2O)cc(CO)c(CO)c1O |  | 29.1 | 38 | 43.9 | 30.6 | 77.9 | 62.2 | 19.1 | 40.7 |  |  |  | 85.6 |  |  |  |  |  |  |  |
| Cc1ccc(C)c2c1C(O)(C#Cc1ccccc1)c1ccccc1C2(O)C#Cc1ccccc1 (centres undefined) |  | 4.99 | > 79.3 | > 100 | 27.1 | > 100 | 51.3 | > 100 | > 100 | 1.63 | 3.42 | 3.63 | > 28.9 | 3.04 | 2.93 | 3.68 | 3.05 | 4.04 | 4.04 |  |
| C[N-]c1nnnn1C.[Au+].c1ccc([PH+](c2ccccc2)c2ccccc2)cc1 | 1.26 | 3.65 | 7.39 | 23.9 | 28.6 | 4.42 | 9.99 | 0.567 | 11 | 1.59 | 2.38 |  |  | 11.7 | 7.09 | 2.19 | 2.76 | 0.189 | 4.75 | 0.347 |
| CC(C)CC(NC(=O)c1cccc(O)c1O)C(=O)NCc1cc(CNC(=O)C(CC(C)C)NC(=O)c2cccc(O)c2O)cc(CNC(=O)C(CC(C)C)NC(=O)c2cccc(O)c2O)c1 (centres undefined) |  | 30.4 | 20.9 | 38.4 | 41.9 | > 100 | 27.1 | 19.2 | 45.9 |  |  |  |  |  |  |  |  |  |  |  |
| O=c1nc(/C=C/c2ccccc2Cl)cc2n1CCN2CCO | > 100 |  | > 100 | > 100 | > 100 | > 100 | > 100 | > 100 | > 100 |  |  |  |  |  |  |  |  |  |  |  |
| O=C1c2ccccc2C(Br)(Br)c2ccccc21 | > 31.6 | > 31.6 | > 100 | > 31.6 | > 100 | > 100 | > 31.6 | > 31.6 | > 31.6 |  |  |  |  |  |  |  |  |  |  |  |
| Cc1cc2c(ccc3c(C)cc(=O)oc32)o1 | > 100 | > 100 | > 100 | > 100 | > 100 | > 100 | > 100 |  | > 100 |  |  |  |  |  |  |  |  |  |  |  |
| COc1ccc(Nc2nc3ccc(C(F)(F)F)cc3nc2-c2ccccc2)cc1OC | 83.6 | > 100 | > 100 | > 100 | > 100 |  | > 100 | > 100 | > 100 |  |  |  |  |  |  |  |  |  |  |  |
| CCCCCC[N+](C)(C)Cc1ccc(C[N+](C)(C)CCCCCC)cc1 |  | 28.5 |  | 12.8 |  | 24.3 | 5.38 |  | 10.8 |  |  |  |  |  |  |  |  |  |  |  |
